Test results published in patent US10570129B2 (Zoetis Services LLC, priority 2015, dated 2020).

What was measured:
D. immitis microfilariae = assay: Dirofilaria immitis, microfilariae (DiMF) in vitro motility assay; type: cell-based; details: Dirofilaria immitis, 72 h, read-out: DiMF minimally effective dose (MEC)
Haemonchus contortus L3 = assay: microbe, parasite or virus in culture; type: cell-based; details: Haemonchus contortus, 96 h, read-out: HcL3 Minimal Effective Concentration (MEC)

Row | SMILES | minimal effective concentration (D. immitis microfilariae) | minimal effective concentration (Haemonchus contortus L3)
1 | N#Cc1ccc2c(c1)c1c(n2C(=O)NCc2ccnc(O)c2)CCN(C/C=C/c2cc(Cl)c(F)c(Cl)c2)C1 [Example 452, (E)-8-cyano-2-(3-(3,5-dichloro-4-fluorophenyl)allyl)-N-((2-hydroxypyridin-4-yl)methyl)-1,2,3,4-tetrahydro-5H-pyrido[4,3-b]indole-5-carboxamide] | > 100 µM | > 100 µM
2 | O=C(NCc1ccnc(Cl)c1)n1c2c(c3cc(F)c(Cl)cc31)CN(C/C=C/c1ccc(F)cc1F)CC2 [Example 299, (E)-7-chloro-N-((2-chloropyridin-4-yl)methyl)-2-(3-(2,4-difluorophenyl)-allyl)-8-fluoro-1,2,3,4-tetrahydro-5H-pyrido[4,3-b]indole-5-carboxamide] | 1.8 µM | 0.4 µM
3 | N#Cc1ccc(/C=C/CN2CCc3c(c4cc(C(F)(F)F)ccc4n3C(=O)NCc3ccnc(Cl)c3)C2)cc1F [Example 411, (E)-N-((2-chloropyridin-4-yl)methyl)-2-(3-(4-cyano-3-fluorophenyl)allyl)-8-(trifluoromethyl)-1,2,3,4-tetrahydro-5H-pyrido[4,3-b]indole-5-carboxamide] | 1.8 µM | 0.03 µM
4 | O=C(NCc1ccnc(Cl)c1)n1c2c(c3cc(C(F)(F)F)ccc31)CN(C/C=C/c1ccc(F)c(Cl)c1)CC2 [Example 413, (E)-2-(3-(3-chloro-4-fluorophenyl)allyl)-N-((2-chloropyridin-4-yl)methyl)-8-(trifluoromethyl)-1,2,3,4-tetrahydro-5H-pyrido[4,3-b]indole-5-carboxamide] | > 100 µM | 1.8 µM
5 | Cc1ccc2c3c(n(C(=O)NCc4ccnc(Cl)c4)c2c1)CCN(C/C=C/c1ccc(C(F)(F)F)cc1)C3 [Example 150, (E)-N-((2-chloropyridin-4-yl)methyl)-7-methyl-2-(3-(4-(trifluoromethyl)-phenyl)allyl)-1,2,3,4-tetrahydro-5H-pyrido[4,3-b]indole-5-carboxamide] | 10 µM | 3.3 µM
6 | N#Cc1ccc2c(c1)c1c(n2C(=O)NCc2ccnc(F)c2)CCN(C/C=C/c2ccc(F)cc2Br)C1 [Example 125, (E)-2-(3-(2-bromo-4-fluorophenyl)allyl)-8-cyano-N-((2-fluoropyridin-4-yl)methyl)-1,2,3,4-tetrahydro-5H-pyrido[4,3-b]indole-5-carboxamide] | > 100 µM | 0.3 µM
7 | O=C(NCc1ccnc(Cl)c1)n1c2c(c3cc(F)c(OC(F)(F)F)cc31)CN(C/C=C/c1ccc(Cl)cc1)CC2 [Example 469, (E)-2-(3-(4-chlorophenyl)allyl)-N-((2-chloropyridin-4-yl)methyl)-8-fluoro-7-(trifluoromethoxy)-1,2,3,4-tetrahydro-5H-pyrido[4,3-b]indole-5-carboxamide] | > 100 µM | 1 µM
8 | O=C(NCc1ccnc(Cl)c1)n1c2c(c3cc(F)ccc31)CN(C/C=C/c1ccc(Cl)cc1)CC2 [Example 169, (E)-2-(3-(4-chlorophenyl)allyl)-N-((2-chloropyridin-4-yl)methyl)-8-fluoro-1,2,3,4-tetrahydro-5H-pyrido[4,3-b]indole-5-carboxamide] | 18.2 µM | 0.1 µM
9 | O=C(NCc1ccnc(Cl)c1)n1c2c(c3c(F)cc(C(F)(F)F)cc31)CN(C/C=C/c1ccc(F)cc1)CC2 [Example 325, (E)-N-((2-chloropyridin-4-yl)methyl)-9-fluoro-2-(3-(4-fluorophenyl)allyl)-7-(trifluoromethyl)-1,2,3,4-tetrahydro-5H-pyrido[4,3-b]indole-5-carboxamide] | 7.6 µM | 3.3 µM
10 | O=C(NCc1ccnc(Cl)c1)n1c2c(c3ccc(Br)cc31)CN(C/C=C/c1ccc(Cl)cc1)CC2 [Example 443, (E)-7-bromo-2-(3-(4-chlorophenyl)allyl)-N-((2-chloropyridin-4-yl)methyl)-1,2,3,4-tetrahydro-5H-pyrido[4,3-b]indole-5-carboxamide] | 3.3 µM | 0.5 µM
11 | O=C(NCc1ccnc(F)c1)n1c2c(c3ccc(OC(F)(F)F)cc31)CN(C/C=C/c1ccc(F)c(F)c1)CC2 [Example 376, (E)-2-(3-(3,4-difluorophenyl)allyl)-N-((2-fluoropyridin-4-yl)methyl)-7-(trifluoromethoxy)-1,2,3,4-tetrahydro-5H-pyrido[4,3-b]indole-5-carboxamide] | 10 µM | 0.5 µM
12 | N#Cc1ccc2c(c1)c1c(n2C(=O)NCc2ccnc(Cl)c2)CCN(C/C=C/c2ccc(Br)c(F)c2F)C1 [Example 81, (E)-2-(3-(4-bromo-2,3-difluorophenyl)allyl)-N-((2-chloropyridin-4-yl)methyl)-8-cyano-1,2,3,4-tetrahydro-5H-pyrido[4,3-b]indole-5-carboxamide] | > 100 µM | 0.2 µM
13 | N#Cc1cc2c(cc1Cl)c1c(n2C(=O)NCc2ccnc(Cl)c2)CCN(C/C=C/c2ccc(Cl)cc2)C1 [Example 296, (E)-8-chloro-2-(3-(4-chlorophenyl)allyl)-N-((2-chloropyridin-4-yl)methyl)-7-cyano-1,2,3,4-tetrahydro-5H-pyrido[4,3-b]indole-5-carboxamide] | > 100 µM | 1 µM
14 | N#Cc1ccc2c(c1)c1c(n2C(=O)NCc2ccnc(Cl)c2)CCN(C/C=C/c2cc(F)ccc2Br)C1 [Example 77, (E)-2-(3-(2-bromo-5-fluorophenyl)allyl)-N-((2-chloropyridin-4-yl)methyl)-8-cyano-1,2,3,4-tetrahydro-5H-pyrido[4,3-b]indole-5-carboxamide] | > 100 µM | 0.3 µM
15 | O=C(NCc1ccnc(Cl)c1)n1c2c(c3cccc(Cl)c31)CN(C/C=C/c1ccc(C(F)(F)F)cn1)CC2 [Example 266, (E)-6-chloro-N-((2-chloropyridin-4-yl)methyl)-2-(3-(5-(trifluoromethyl)-pyridin-2-yl)allyl)-1,2,3,4-tetrahydro-5H-pyrido[4,3-b]indole-5-carboxamide] | 18.2 µM | > 100 µM
16 | O=C(NCc1ccnc(F)c1)n1c2c(c3cc(Cl)ccc31)CN(C/C=C/c1ccc(F)c(F)c1)CC2 [Example 259, (E)-8-chloro-2-(3-(3,4-difluorophenyl)allyl)-N-((2-fluoropyridin-4-yl)methyl)-1,2,3,4-tetrahydro-5H-pyrido[4,3-b]indole-5-carboxamide] | 3.3 µM | 0.1 µM
17 | N#Cc1ccc(/C=C/CN2CCc3c(c4cc(F)c(Cl)cc4n3C(=O)NCc3ccnc(F)c3)C2)cc1F [Example 311, (E)-7-chloro-2-(3-(4-cyano-3-fluorophenyl)allyl)-8-fluoro-N-((2-fluoro-pyridin-4-yl)methyl)-1,2,3,4-tetrahydro-5H-pyrido[4,3-b]indole-5-carboxamide] | 5.7 µM | 0.5 µM
18 | O=C(NCc1ccnc(Cl)c1)n1c2c(c3cccc(Cl)c31)CN(C/C=C/c1ccc(Cl)c(Cl)c1)CC2 [Example 268, (E)-6-chloro-N-((2-chloropyridin-4-yl)methyl)-2-(3-(3,4-dichlorophenyl)allyl)-1,2,3,4-tetrahydro-5H-pyrido[4,3-b]indole-5-carboxamide] | 10 µM | > 100 µM
19 | O=C(NCc1ccnc(Cl)c1)n1c2c(c3cc(Cl)ccc31)CN(Cc1ccc3cc(Cl)ccc3n1)CC2 [Example 247, 8-chloro-N-((2-chloropyridin-4-yl)methyl)-2-((6-chloroquinolin-2-yl)methyl)-1,2,3,4-tetrahydro-5H-pyrido[4,3-b]indole-5-carboxamide] | 1.8 µM | 1 µM
20 | N#Cc1ccc(/C=C/CN2CCc3c(c4cc(Cl)ccc4n3C(=O)NCc3ccnc(Cl)c3)C2)cc1 [Example 241, (E)-8-chloro-N-((2-chloropyridin-4-yl)methyl)-2-(3-(4-cyanophenyl)allyl)-1,2,3,4-tetrahydro-5H-pyrido[4,3-b]indole-5-carboxamide] | 13.5 µM | 0.4 µM
21 | N#Cc1ccc2c3c(n(C(=O)NCc4ccnc(Cl)c4)c2c1)CCN(C/C=C/c1ccc(Cl)c(F)c1F)C3 [Example 15, (E)-2-(3-(4-chloro-2,3-difluorophenyl)allyl)-N-((2-chloropyridin-4-yl)methyl)-7-cyano-1,2,3,4-tetrahydro-5H-pyrido[4,3-b]indole-5-carboxamide] | > 100 µM | 1 µM
22 | CS(=O)(=O)c1ccc(/C=C/CN2CCc3c(c4ccc(C(F)(F)F)cc4n3C(=O)NCc3ccnc(Cl)c3)C2)cc1 [Example 151, (E)-N-((2-chloropyridin-4-yl)methyl)-2-(3-(4-(methylsulfonyl)phenyl)allyl)-7-(trifluoromethyl)-1,2,3,4-tetrahydro-5H-pyrido[4,3-b]indole-5-carboxamide] | 13.5 µM | > 100 µM
23 | O=C(NCc1ccnc(Cl)c1)n1c2c(c3ccc(OC(F)(F)F)cc31)CN(C/C=C/c1ccc(Cl)cc1F)CC2 [Example 340, (E)-2-(3-(4-chloro-2-fluorophenyl)allyl)-N-((2-chloropyridin-4-yl)methyl)-7-(trifluoromethoxy)-1,2,3,4-tetrahydro-5H-pyrido[4,3-b]indole-5-carboxamide] | 5.7 µM | 0.3 µM
24 | CS(=O)(=O)c1ccc2c(c1)c1c(n2C(=O)NCc2ccnc(Cl)c2)CCN(C/C=C/c2ccc(Cl)c(Cl)c2)C1 [Example 458, (E)-N-((2-chloropyridin-4-yl)methyl)-2-(3-(3,4-dichlorophenyl)allyl)-8-(methylsulfonyl)-1,2,3,4-tetrahydro-5H-pyrido[4,3-b]indole-5-carboxamide] | 3.3 µM | 5.7 µM
